Measured values taken from patent US20260325541A1, “BENZGALANTAMINE FOR TREATING PERSISTENT POST-CONCUSSION SYMPTOMS” (Alpha Cognition Inc., priority 2023, published 2026).
Counter-ions that a name gives are not always drawn.

Columns and labels:
P. aeruginosa ATCC 9027 = test: USP 51 antimicrobial effectiveness test, P. aeruginosa; format: cell-based, Pseudomonas aeruginosa; conditions: for CFU/mL: initial 2.9 × 10^5 CFU/mL, 22.5±2.5 °C; for Log Reduction: initial log10 5.5
Protocol: (§1) As shown in WO2022236396A1, in order to assess the anti-microbial properties of ALPHA-1062, the USP (US Pharmacopeia) Chapter 51 Preservative Challenge Test (USP 51) was employed. The USP 51 is a common method used to gauge preservative effectiveness. Much like a Preservative Challenge Screen, it is used to evaluate the effect of preservatives in cosmetics, personal care products, and drug products. Preservatives are typically antimicrobial ingredients that are added to aqueous product formulations to help maintain the safety of the product by inhibiting the growth and reducing the number of microbial contaminants.
(§2) In the context of the present invention, ALPHA-1062 (in the form of the gluconate salt) was assessed in place of (as) a preservative. No additional preservative was added to the ALPHA-1062 gluconate preparation, rather an anti-microbial effect of the agent itself (ALPHA-1062) was assessed. ALPHA-1062 is therefore the anti-microbial agent in the assay and experiments described below.
(§3) The USP 51 challenge test utilizes 5 microorganisms (3 bacteria and 2 fungi) for challenge testing. Each of the microorganisms are known strains of pathogenic microorganisms and they represent a wide range of microbial physiologies.
(§4) Cultures of the following microorganisms were applied, as per standard guidelines for USP 51: Candida albicans (ATCC No. 10231), Aspergillus brasiliensis (ATCC No. 16404), Escherichia coli (ATCC No. 8739), Pseudomonas aeruginosa (ATCC No. 9027), and Staphylococcus aureus (ATCC No. 6538). […]
(§5) The initial concentration of viable microorganisms in each test preparation was estimated based on the concentration of microorganisms in each of the standardized inoculums, as determined by the plate-count method.
(§6) The inoculated containers were incubated at 22.5±2.5 °C and each container was sampled at the appropriate intervals, as specified in Table 3. Any changes observed in the appearance of the culture was recorded at these intervals. By using the plate-count procedure, the number of CFU present in each test preparation was determined for the applicable intervals.
(§7) An inactivator (neutralizer) of the specific antimicrobial was incorporated in the plate count or in the appropriate dilution prepared for plating. These conditions were determined in the validation study for that sample based upon the conditions of media and microbial recovery incubation times listed in Table 2. Using the calculated concentrations of CFU per mL present at the start of the test, the change in log 10 values of the concentration of CFU per mL for each microorganism was calculated at the applicable test intervals, and the changes were expressed in terms of log reductions.

[1] = test system: all 5 organisms tested in the USP 51; test: USP 51 overall assessment against Category 2 criteria; format: cell-based; conditions: USP 51, Category 2 criteria, 14 and 28 days
Protocol: as §1
In the context of the present invention, ALPHA-1062 (in the form of the gluconate salt) was assessed in place of (as) a preservative. No additional preservative was added to the ALPHA-1062 gluconate preparation, rather an anti-microbial effect of the agent itself (ALPHA-1062) was assessed. […]
as §5
The inoculated containers were incubated at 22.5±2.5 °C and each container was sampled at the appropriate intervals, as specified in Table 3. Any changes observed in the appearance of the culture was recorded at these intervals. […]

C. albicans ATCC 10231 = test: USP 51 antimicrobial effectiveness test, C. albicans; format: cell-based, Candida albicans; conditions: for CFU/mL: initial 6.7 × 10^5 CFU/mL, 22.5±2.5 °C; for Log Reduction: initial log10 5.8
Protocol: as §1, §2, §3, §4, §5, §6, §7

S. aureus ATCC 6538 = test: USP 51 antimicrobial effectiveness test, S. aureus; format: cell-based, Staphylococcus aureus; conditions: for CFU/mL: initial 4.0 × 10^5 CFU/mL, 22.5±2.5 °C; for Log Reduction: initial log10 5.6
Protocol: as §1, §2, §3, §4, §5, §6, §7

E. coli ATCC 8739 = test: USP 51 antimicrobial effectiveness test, E. coli; format: cell-based, Escherichia coli; conditions: for CFU/mL: initial 9.1 × 10^5 CFU/mL, 22.5±2.5 °C; for Log Reduction: initial log10 6.0
Protocol: as §1, §2, §3, §4, §5, §6, §7

[2] = test system: A. brasiliensis ATCC 16404; test: USP 51 antimicrobial effectiveness test, A. brasiliensis; format: cell-based, Aspergillus brasiliensis; conditions: for CFU/mL: initial 2.2 × 10^5 CFU/mL, 22.5±2.5 °C; for Log Reduction: initial log10 5.3
Protocol: as §1, §2, §3, §4, §5, §6, §7

[3] = Body weight / overt toxicity over the 35-day study; format: in vivo, male Wistar rats
From the text: Young adult (2-3 months) male Wistar rats were subjected to a moderate TBI induced by controlled cortical impact (CCI). Animal models of TBI including the CCI model and functional tests have been described in detail in peer reviewed publications (Xiong et al., 2013, Nat Rev Neurosci.; Zhang et al., 2016, J Neurosurg.; Zhang et al., 2016, Neurochem Int.; Zhang et al., 2021, J Neurotrauma). Injury consisted of a single impact at 4.0 m/see, 2.5 mm deformation to the left parietal cortex. In addition, a group of animals was left healthy/not injured to serve as a healthy control.
The animals were divided into 3 groups: • 1) TBI+Vehicle (purified water, n=10) • 2) TBI+ALPHA-1062 (4.5 mg/kg) (n=10) • 3) Healthy/not injured and not treated (Sham surgery) (n=10)
The substance used in this study was ALPHA-1062 at 4.5 mg/kg. As control treatment (vehicle) purified water was administered intranasally (IN). The ALPHA-1062 and the control treatment were initiated 2 hours after injury and continued twice daily (with a 6-hour interval) for 35 consecutive days.
Data were evaluated for normality applying the following statistical analyses: Data transformation was considered if the data was abnormal. The data was analyzed with GraphPad Prism Software 9.0. All data herein is presented as the mean±standard deviation (SD) and were analyzed with one-way analysis of variance (ANOVA) or two-way ANOVA (treatment x time) followed by post hoc Tukey's multiple comparison test (more than two groups). Differences between means are considered statistically significant when p is <0.05.

[4] = intra-nasal administration, similar doses; cited from earlier work
[5] = test system: mice after repeated blast mild traumatic brain injury (blast mTBI); test: Thermal Gradient Ring (TGR) assessment of heat/pain sensitivity after repetitive blast mTBI; format: in vivo, C57Bl/6 mice; conditions: after one month of treatment, 3.0 mg/kg
[6] = 43% RH (RT); from WO 2022/150917; cited from earlier work
[7] = Solid-state stability of Form A; format: physicochemical
Protocol: As described therein, polymorphic studies were conducted with benzgalantamine utilizing a variety of solvents and crystallization conditions (Table 5 of WO 2022/150917) and subsequent XRPD analyses. Seven unique crystalline materials were observed and isolated, and were designated as Forms A, B, C, D and Materials E, F and G (FIG. 6 of WO 2022/150917). Amorphous material was also observed. Form A of benzgalantamine is an anhydrous crystalline material with concomitant melt/decomposition onset near 117 °C. […] Based upon WO 2022/150917, anhydrous Form A, stored under appropriate temperature and humidity conditions to maintain its Form and stability, appears best suited of the various benzgalantamine forms to be used in formulation and manufacture of drug products.
As used herein, the term stable may relate to either chemical stability or to polymorph stability. Polymorph stability refers to the likelihood of a polymorph form remaining in its specific crystalline state under suitable storage conditions. For example, a stable polymorph form will maintain at least about 95% by weight, preferably at least about 98% by weight, and more preferably at least about 99% by weight or more of the crystalline form, in other words the form remains unchanged after storage under the indicated conditions for the indicated time.

[8] = test system: patients with chronic TBI; conditions: oral, cited from earlier work; for adverse effects: chronic TBI patients; for TBI-related symptoms: patient reported, not placebo controlled
pre-clinical models = conditions: cited from earlier work
[9] = test system: microglial phagocytic activity; conditions: cited from earlier work
[10] = nausea, vomiting and diarrhea; Cochrane review 2006; cited from earlier work

COc1ccc2c3c1O[C@H]1C[C@@H](OC(=O)c4ccccc4)C=C[C@@]31CCN(C)C2 [ALPHA-1062 Gluconate, (4aS,6R,8aS)-4a,5,6,9,10,11,12-hexahydro-3-methoxy-11-methyl-6H-benzofuro[3a,3,2-ef][2]benzazepin-6-benzoate-gluconate salt]
CFU/mL (P. aeruginosa ATCC 9027; Day 14): <10 CFU/mL | Log Reduction (P. aeruginosa ATCC 9027; Day 14): 4.5 Log | CFU/mL (P. aeruginosa ATCC 9027; Day 28): <10 CFU/mL | Log Reduction (P. aeruginosa ATCC 9027; Day 28): 4.5 Log | anti-microbial effect [1]: strong anti-microbial effect against all 5 organisms tested in the USP 51 | CFU/mL (C. albicans ATCC 10231; Day 14): <10 CFU/mL | Log Reduction (C. albicans ATCC 10231; Day 14): 4.8 Log | CFU/mL (C. albicans ATCC 10231; Day 28): <10 CFU/mL | Log Reduction (C. albicans ATCC 10231; Day 28): 4.8 Log | CFU/mL (S. aureus ATCC 6538; Day 14): <10 CFU/mL | Log Reduction (S. aureus ATCC 6538; Day 14): 4.6 Log | CFU/mL (S. aureus ATCC 6538; Day 28): <10 CFU/mL | Log Reduction (S. aureus ATCC 6538; Day 28): 4.6 Log | CFU/mL (E. coli ATCC 8739; Day 14): <10 CFU/mL | Log Reduction (E. coli ATCC 8739; Day 14): 5.0 Log | CFU/mL (E. coli ATCC 8739; Day 28): <10 CFU/mL | Log Reduction (E. coli ATCC 8739; Day 28): 5.0 Log | CFU/mL ([2]; Day 14): 1.6 × 10^2 CFU/mL | Log Reduction ([2]; Day 14): 3.1 Log | CFU/mL ([2]; Day 28): 1.5 × 10^2 CFU/mL | Log Reduction ([2]; Day 28): 3.1 Log

COc1ccc2c3c1O[C@H]1C[C@@H](OC(=O)c4ccccc4)C=C[C@@]31CCN(C)C2 [ALPHA-1062, (4aS,6R,8aS)-5,6,9,10,11,12-hexahydro-3-methoxy-11-methyl-4aH-[1]benzofuro[3a,3,2-ef][2]benzazepin-6-ol benzoate]
overt toxicity vs vehicle animals ([3]; 35 days, 4.5 mg/kg IN twice daily): did not show overt toxicity | body weight change vs day zero ([3]; days 1-7 (D1-7)): significant body weight loss (p<0.05) | body weight change vs day zero ([3]; days 29-35 (D29-35)): significant body weight gain | body weight vs vehicle treated or untreated animals ([3]; each time point D0-D35, 4.5 mg/kg IN twice daily, FIG. 10): no significant alterations in body weight compared to vehicle treated or untreated animals | bioavailability in the brain vs oral galantamine [4]: higher bioavailability in the brain, than similar doses of oral galantamine | persistence of structural/functional benefit following removal of drug treatment [5]: at least 2 months

COc1ccc2c3c1O[C@H]1C[C@@H](OC(=O)c4ccccc4)C=C[C@@]31CCN(C)C2.O=C(O)C(O)C(O)C(O)C(O)CO [Form A]
duration for which Form A was sustained [6]: up to 5 days | kinetic stability in the solid state [6]: kinetically stable in the solid state | chemical stability ([7]; appropriate storage conditions): good chemical stability | polymorph stability on storage ([7]; room temperature, at or under about 43% RH or less than 0.12 aw, multiple months): good stability

COc1cc2c(cc1OC)C(=O)C(CC1CCN(Cc3ccccc3)CC1)C2 (centres unmarked) [donepezil]
adverse effects [8]: about half of all patients experienced disturbing adverse effects | TBI-related symptoms [8]: subjective improvement of TBI-related symptoms

COc1ccc2c3c1O[C@H]1C[C@@H](O)C=C[C@@]31CCN(C)C2 [galantamine]
adverse effects [8]: about half of all patients experienced disturbing adverse effects | TBI-related symptoms [8]: subjective improvement of TBI-related symptoms | pre-clinical effects (pre-clinical models; active metabolite of benzgalantamine): increase cholinergic activation, reduce neuroinflammation, improve blood-brain barrier function, activate cell survival signalling pathways as well as increase neurogenesis | glutamate and beta-amyloid toxicity (pre-clinical models): decrease both glutamate and beta-amyloid toxicity | microglial phagocytic activity [9]: activation of microglial phagocytic activity | gastro-intestinal (GI) side effects [10]: clinically significant level of mechanism-based gastro-intestinal (GI) side effects

CCN(C)C(=O)Oc1cccc([C@H](C)N(C)C)c1 [rivastigmine]
adverse effects [8]: about half of all patients experienced disturbing adverse effects | TBI-related symptoms [8]: subjective improvement of TBI-related symptoms
